Where two headings read alike, the source gives them in different places. Peptide text beside a SMILES is read from it.
Assays:
hepatocytes = assay: Tests in vitro: vitality of isolated rat hepatocytes; format: cell-based; details: for viability at 250 µM / viability at 500 µM / viability at 1000 µM / viability at 2500 µM / viability at 5000 µM: Rattus norvegicus, Hepatocyte, read-out: Cells vitality; for viability at 1000 µM: DEM + 1.0 mM; for viability at 5000 µM: DEM + 5.0 mM
Description: (§1) The experimental model envisages the isolation of hepatic parenchymal cells of rats following perfusion, with collagenase, of the isolated organ. Prior to each test, hepatocytes vitality was quantified by Tripan Blue […]. Only the cells with a vitality greater than 90% were utilized. Hepatocytes were resuspended, at a concentration of 10^6 cells/ml, in a saline medium (Krebs Heinseleit) at ph 7.4, and then placed into rotating flasks in the presence of O2 (95%) and CO2 (5%), at 37° C. Cells keep vital for 5-6 hours at least.
(§2) […] The cells were then washed for 30 min. and incubated with various concentrations of the test substance (from 0.25 to 5 mM).
(§3) By this experimental model it is possible to test the effect of the substance by evaluating the hepatic functionality determined by measurements of the vitality (Tables Nos. 3, 4, and 5) and of glutathione content (Tables 6, 7, and 8).
(§4) In the Tables 3-8 herein below reported, the controls are represented by normal hepatocytes, not treated either with DEM or with compound (I).

[1] = system: glutathione (GSH) in hepatocytes; assay: Tests in vitro: glutathione content of isolated rat hepatocytes; format: cell-based; details: for activity at 250 µM / activity at 500 µM / activity at 1000 µM / activity at 2500 µM / activity at 5000 µM: read-out: Glutathione concentrations; for activity at 1000 µM: DEM + 1.0 mM; for activity at 5000 µM: DEM + 5.0 mM
Description: as §1, §2, §3, §4

splenocytes = assay: Blastization with concavaline A (ConA) on splenocytes of PSC-treated young and old rats; format: in vivo, Sprague-Dawley rats
Description: Sprague-Dawley rats (Charles River, Calco (CO)), aged 10 weeks (young adults) and 24 months (old), were stabled under standard conditions (24°±1° C., 12 h light/dark cycle, free access to food and water). Handlings were made in such a way as to avoid stressful stimuli.
The animals were stabled in groups of 6 per cage and treated for 2 weeks (15 days) with a PSC daily dose of 600 mg/kg by intraperitoneal route (i.p.).
Once the treatment with PSC previously described in the paragraph "Animals" was completed, the animals were sacrificed by decapitation, spleens were excised under sterile conditions and broken up in a Petri dish. The splenocytes thus obtained by mechanical dispersion were placed in culture medium RPMI 1640 with addition of calf fetal serum (FBS) (10%).
The resulting cellular suspension was centrifuged at 2500 rpm for 20 min on Ficoll-Paque gradient. Stratified splenocytes were taken by a sterile Pasteur pipette and washed three times with sterile FBS. Cells were counted and placed onto 96-well plastic plates at a concentration of 1×10^5 /well in of volume of 0.1 ml. The cultures thus obtained were incubated for 48 hrs at 37° C., in a […] environment. Forty-eight hours later, concavaline A (ConcA) was added to the cultures at a concentration of 1 μg/ml in a volume of 0.1 ml. Eighteen hours later, tritiated thymidine was added (volume: 10 μl). Incorporation of tritiated thymidine was stopped after 3 hrs, by elimination of excess liquid by suction and by sucking the cells on fibreglass filters. Filters were placed in scintillation vials containing 5 ml of scintillating solution (Insta-Gel). Radioactivity (dpm) was measured during 2 min using a β-counter.
The results obtained on groups treated with ConA alone (controls), on groups treated with PSC (600 mg/kg), and on groups that had not been treated either with ConA or PSC are compared in Table 13.

[2] = Rattus norvegicus, Hepatocyte, 0 h, 0 time
[3] = Rattus norvegicus, Hepatocyte, 0.5 h, 30 min
[4] = Rattus norvegicus, Hepatocyte, 1 h, 1 hr
[5] = Rattus norvegicus, Hepatocyte, 2 h, 2 hrs
[6] = Rattus norvegicus, Hepatocyte, 4 h, 4 hrs

CC(=O)SC[C@H](NC(=O)[C@@H]1CCC(=O)N1)C(=O)O [PSC, 2-(S)-(2-pyrrolidone-5-(S)-carbonyl amido)-3-acetylmercapto propionic acid] (HELM PEPTIDE1{[Glp].C}|PEPTIDE2{[ac]}$PEPTIDE1,PEPTIDE2,2:R3-1:R2$$$V2.0)
viability at 250 µM (hepatocytes; 0 h, DEM + 0.25 mM, 0 time (Table 4)): 95%
viability at 500 µM (hepatocytes; 0 h, DEM + 0.50 mM, 0 time (Table 4)): 95%
viability at 1000 µM (hepatocytes; 0 h, 0 time (Table 5)): 96%
viability at 2500 µM (hepatocytes; 0 h, DEM + 2.5 mM, 0 time (Table 5)): 96%
viability at 5000 µM (hepatocytes; 0 h, 0 time (Table 5)): 96%
viability at 250 µM (hepatocytes; 0 h, no DEM, 0.25 mM, 0 time): 100%
viability at 500 µM (hepatocytes; 0 h, no DEM, 0.50 mM, 0 time): 100%
viability at 2500 µM (hepatocytes; 0 h, no DEM, 2.5 mM, 0 time): 100%
viability at 250 µM (hepatocytes; 0.5 h, DEM + 0.25 mM, 30 min (Table 4)): 90%
viability at 500 µM (hepatocytes; 0.5 h, DEM + 0.50 mM, 30 min (Table 4)): 88%
viability at 1000 µM (hepatocytes; 0.5 h, 30 min (Table 5)): 92%
viability at 2500 µM (hepatocytes; 0.5 h, DEM + 2.5 mM, 30 min (Table 5)): 89%
viability at 5000 µM (hepatocytes; 0.5 h, 30 min (Table 5)): 88%
viability at 250 µM (hepatocytes; 0.5 h, no DEM, 0.25 mM, 30 min): 101%
viability at 500 µM (hepatocytes; 0.5 h, no DEM, 0.50 mM, 30 min): 101%
viability at 2500 µM (hepatocytes; 0.5 h, no DEM, 2.5 mM, 30 min): 94%
viability at 250 µM (hepatocytes; 1 h, DEM + 0.25 mM, 1 hr (Table 4)): 87%
viability at 500 µM (hepatocytes; 1 h, DEM + 0.50 mM, 1 hr (Table 4)): 85%
viability at 1000 µM (hepatocytes; 1 h, 1 hr (Table 5)): 90%
viability at 2500 µM (hepatocytes; 1 h, DEM + 2.5 mM, 1 hr (Table 5)): 84%
viability at 5000 µM (hepatocytes; 1 h, 1 hr (Table 5)): 84%
viability at 250 µM (hepatocytes; 1 h, no DEM, 0.25 mM, 1 hr): 98%
viability at 500 µM (hepatocytes; 1 h, no DEM, 0.50 mM, 1 hr): 100%
viability at 2500 µM (hepatocytes; 1 h, no DEM, 2.5 mM, 1 hr): 95%
viability at 250 µM (hepatocytes; 2 h, DEM + 0.25 mM, 2 hrs (Table 4)): 86%
viability at 500 µM (hepatocytes; 2 h, DEM + 0.50 mM, 2 hrs (Table 4)): 84%
viability at 1000 µM (hepatocytes; 2 h, 2 hrs (Table 5)): 89%
viability at 2500 µM (hepatocytes; 2 h, DEM + 2.5 mM, 2 hrs (Table 5)): 83.5%
viability at 5000 µM (hepatocytes; 2 h, 2 hrs (Table 5)): 82%
viability at 250 µM (hepatocytes; 2 h, no DEM, 0.25 mM, 2 hrs): 100%
viability at 500 µM (hepatocytes; 2 h, no DEM, 0.50 mM, 2 hrs): 101%
viability at 2500 µM (hepatocytes; 2 h, no DEM, 2.5 mM, 2 hrs): 95%
viability at 250 µM (hepatocytes; 4 h, DEM + 0.25 mM, 4 hrs (Table 4)): 87%
viability at 500 µM (hepatocytes; 4 h, DEM + 0.50 mM, 4 hrs (Table 4)): 85%
viability at 1000 µM (hepatocytes; 4 h, 4 hrs (Table 5)): 88%
viability at 2500 µM (hepatocytes; 4 h, DEM + 2.5 mM, 4 hrs (Table 5)): 82%
viability at 5000 µM (hepatocytes; 4 h, 4 hrs (Table 5)): 80%
viability at 250 µM (hepatocytes; 4 h, no DEM, 0.25 mM, 4 hrs): 116%
viability at 500 µM (hepatocytes; 4 h, no DEM, 0.50 mM, 4 hrs): 114%
viability at 2500 µM (hepatocytes; 4 h, no DEM, 2.5 mM, 4 hrs): 104%
cellular suffering (in words) (hepatocytes; hepatocytes treated with DEM then test substance): a cellular suffering (cellular dilatation without appearance of vesicles) was at first detected, which disappeared after few tens of minutes
cellular toxicity (in words) (hepatocytes; in vitro, up to 5 mM): does not cause cellular toxicity and, at least in vitro, is very well tolerated
increase in the GSH content ([1]; DEM-pretreated hepatocytes, 2.5 and 5 mM): greater than 170%
activity at 250 µM ([1]; Rattus norvegicus, Hepatocyte, 0 h, DEM + 0.25 mM, 0 time): 28%
activity at 500 µM ([1]; Rattus norvegicus, Hepatocyte, 0 h, DEM + 0.50 mM, 0 time): 28.4%
activity at 1000 µM [1, 2]: 25.8%
activity at 2500 µM ([1]; Rattus norvegicus, Hepatocyte, 0 h, DEM + 2.5 mM, 0 time): 23.9%
activity at 5000 µM [1, 2]: 26.6%
activity at 250 µM ([1]; Rattus norvegicus, Hepatocyte, 0 h, no DEM, 0.25 mM, 0 time): 104%
activity at 500 µM ([1]; Rattus norvegicus, Hepatocyte, 0 h, no DEM, 0.50 mM, 0 time): 107%
activity at 2500 µM ([1]; Rattus norvegicus, Hepatocyte, 0 h, no DEM, 2.5 mM, 0 time): 99.5%
activity at 250 µM ([1]; Rattus norvegicus, Hepatocyte, 0.5 h, DEM + 0.25 mM, 30 min): 42.8%
activity at 500 µM ([1]; Rattus norvegicus, Hepatocyte, 0.5 h, DEM + 0.50 mM, 30 min): 45.7%
activity at 1000 µM [1, 3]: 52.7%
activity at 2500 µM ([1]; Rattus norvegicus, Hepatocyte, 0.5 h, DEM + 2.5 mM, 30 min): 61.1%
activity at 5000 µM [1, 3]: 69.4%
activity at 250 µM ([1]; Rattus norvegicus, Hepatocyte, 0.5 h, no DEM, 0.25 mM, 30 min): 117%
activity at 500 µM ([1]; Rattus norvegicus, Hepatocyte, 0.5 h, no DEM, 0.50 mM, 30 min): 144%
activity at 2500 µM ([1]; Rattus norvegicus, Hepatocyte, 0.5 h, no DEM, 2.5 mM, 30 min): 158%
activity at 250 µM ([1]; Rattus norvegicus, Hepatocyte, 1 h, DEM + 0.25 mM, 1 hr): 54.8%
activity at 500 µM ([1]; Rattus norvegicus, Hepatocyte, 1 h, DEM + 0.50 mM, 1 hr): 74.2%
activity at 1000 µM [1, 4]: 71%
activity at 2500 µM ([1]; Rattus norvegicus, Hepatocyte, 1 h, DEM + 2.5 mM, 1 hr): 89%
activity at 5000 µM [1, 4]: 92%
activity at 250 µM ([1]; Rattus norvegicus, Hepatocyte, 1 h, no DEM, 0.25 mM, 1 hr): 134%
activity at 500 µM ([1]; Rattus norvegicus, Hepatocyte, 1 h, no DEM, 0.50 mM, 1 hr): 155%
activity at 2500 µM ([1]; Rattus norvegicus, Hepatocyte, 1 h, no DEM, 2.5 mM, 1 hr): 182%
activity at 250 µM ([1]; Rattus norvegicus, Hepatocyte, 2 h, DEM + 0.25 mM, 2 hrs): 81.2%
activity at 500 µM ([1]; Rattus norvegicus, Hepatocyte, 2 h, DEM + 0.50 mM, 2 hrs): 103%
activity at 1000 µM [1, 5]: 96.7%
activity at 2500 µM ([1]; Rattus norvegicus, Hepatocyte, 2 h, DEM + 2.5 mM, 2 hrs): 119%
activity at 5000 µM [1, 5]: 119%
activity at 250 µM ([1]; Rattus norvegicus, Hepatocyte, 2 h, no DEM, 0.25 mM, 2 hrs): 142%
activity at 500 µM ([1]; Rattus norvegicus, Hepatocyte, 2 h, no DEM, 0.50 mM, 2 hrs): 159%
activity at 2500 µM ([1]; Rattus norvegicus, Hepatocyte, 2 h, no DEM, 2.5 mM, 2 hrs): 191%
activity at 250 µM ([1]; Rattus norvegicus, Hepatocyte, 4 h, DEM + 0.25 mM, 4 hrs): 83%
activity at 500 µM ([1]; Rattus norvegicus, Hepatocyte, 4 h, DEM + 0.50 mM, 4 hrs): 138%
activity at 1000 µM [1, 6]: 119%
activity at 2500 µM ([1]; Rattus norvegicus, Hepatocyte, 4 h, DEM + 2.5 mM, 4 hrs): 173%
activity at 5000 µM [1, 6]: 191%
activity at 250 µM ([1]; Rattus norvegicus, Hepatocyte, 4 h, no DEM, 0.25 mM, 4 hrs): 146%
activity at 500 µM ([1]; Rattus norvegicus, Hepatocyte, 4 h, no DEM, 0.50 mM, 4 hrs): 207%
activity at 2500 µM ([1]; Rattus norvegicus, Hepatocyte, 4 h, no DEM, 2.5 mM, 4 hrs): 211%
activation at 250 µM ([1]; Rattus norvegicus, Hepatocyte, DEM-pretreated hepatocytes, 0.25 mM, 4 hours, read-out: increase in GSH values): ~80%
activation at 500 µM ([1]; Rattus norvegicus, Hepatocyte, DEM-pretreated hepatocytes, 0.5 mM, 4 hours, read-out: increase in GSH values): 130 to 140%
activation at 1000 µM ([1]; Rattus norvegicus, Hepatocyte, DEM-pretreated hepatocytes, 1 mM, read-out: increase in the GSH content): ~120%
restoring thiol groups and in particular GSH (in words) ([1]; in vitro): greatly effective in restoring thiol groups and in particular GSH
permeability of the hepatocyte membrane (in words) ([1]; normal hepatocytes): clearly indicates the permeability of the hepatocyte membrane
increase in basal GSH at 2.5 mM compared with 0.5 mM (in words) ([1]; normal hepatocytes, 4 hours): superimposable to that caused by concentrations five times lower (0.5 mM)
increase in GSH basal values ([1]; normal hepatocytes, concentrations from 0.5 mM, after 4 hrs, in respect of controls): greater than 180%
splenocytes blastization induced by ConA (in words) (splenocytes; 600 mg/kg): showed a significant increase in splenocytes blastization induced by ConA
blastization (tritiated thymidine incorporation), Young (splenocytes; 600 mg/kg i.p. 15 days + ConA): 1488 ± 62 DPM × 100
blastization (tritiated thymidine incorporation), Old (splenocytes; 600 mg/kg i.p. 15 days + ConA, *P < 0.05): 1250 ± 11 DPM × 100
